# Like-named read-outs stand apart in the source and are kept apart here.
# Assays:
# Type in all cases: cell-based
# [1] = test system: non-tumorigenic bronchial epithelial (BEAS-2B) cell line; assay: MTT cell viability on normal cell line BEAS-2B; settings: BEAS-2B normal cell line, 24 h, read-out: IC50 ± S.D. BEAS-2B
# Protocol: (§1) DP and BEAS-2B were seeded into 96-well plates at densities of 1 × 10^4 cells per well, while HaCaT cells were seeded at densities of 5 × 10^3 cells per well. The cells were allowed to adhere for 24 h. Subsequently, the cells were treated with various concentrations of compounds 3a–3o, 4a, and 4b at 72 h for DP cells and at 24 h for HaCaT and BEAS-2B cells. After the treatment period, cells were incubated with 0.5 mg/ml of MTT for 2 h. The resulting MTT product was measured at 570 nm using a spectrophotometric microplate reader. Cell viability was calculated by comparing the optical density (OD) measurements to those of the untreated control, and the results were expressed as a percentage.
# [2] = test system: H292 non-small-cell lung cancer cell line; assay: cells; settings: for IC50: H292, MTT, 72 h, read-out: IC50 ± S.D. H292
# Protocol: (§2) The in vitro cytotoxicity of all the semisynthesized esters and their precursors against H292 and H460 human NSCLC cell lines was analyzed based on the mitochondrial dehydrogenase activity via the MTT assay[43] (Table 1). The compounds were tested at doses of 1–250 nM. Cisplatin and doxorubicin, which are the standard chemotherapeutic drugs for the treatment of NSCLC, were used as positive controls. […] However, the extended use of 1 is limited by the concerns for unwanted necrosis, which is an unprogrammed form of cell death caused by the presence of two quinone moieties. […] The IC50 values of the 5-O-ester derivatives 3a, 3b, 3d, 3h, 3i, and 3k were in the same range as the mother compound 1.
# (§3) The in vitro cytotoxicity of compounds 3a–3o, 4a, and 4b was determined against the H292 and H460 NSCLC cell lines by the MTT colorimetric assay. Each compound was dissolved in DMSO to prepare a 10 mM stock solution. Both the H292 and H460 cells were cultured in RPMI 1640 medium supplemented with 2 mM L-glutamine, 10% FBS, and 100 units/mL of penicillin–streptomycin at 37 °C under 5% CO2. The NSCLC cells were trypsinized and seeded with a density of 5 × 10^3 cells/well in a 96-well plate, followed by overnight incubation. Serial dilutions of the test compounds ranging from 1 to 250 nM were prepared in the presence of DMSO (< 0.2% v/v). […] After incubation, formazan crystals were solubilized by adding 100 µL of DMSO, and their absorbance was measured at 570 nm by a spectrophotometric microtiter plate reader (PerkinElmer Victor 3 1420 Multilabel Plate Counter). Cell viability was calculated as the percentage of nontreated control cells. The mean IC50 values were obtained from three independent experiments. Each experiment was conducted in triplicate with at least five concentrations of the tested compounds. The GraphPad Prism software (version 5) was used to calculate the average IC50 and standard deviation (S.D.) values for each experiment. Cisplatin and doxorubicin were used as the positive controls, while 0.2% DMSO served as the negative control.
# [3] = test system: H460 non-small-cell lung cancer cell line; assay: cells; settings: for IC50: H460, MTT, 72 h, read-out: IC50 ± S.D. H460
# Protocol: as §2, §3
# [4] = test system: dermal papilla (DP) cell line; assay: MTT cell viability on normal cell line DP; settings: 72 h
# Protocol: as §1
# [5] = test system: human keratinocyte (HaCaT) cell line; assay: MTT cell viability on normal cell line HaCaT; settings: 24 h, read-out: IC50 ± S.D. HaCaT
# Protocol: as §1
smiles,measurement,setting,value
"N.N.[Cl][Pt][Cl] [Cisplatin, reference compound]",IC50,[1],> 20000 nM
same,IC50,[2],4230 nM
same,IC50,[3],3860 nM
same,IC50,[4],10800 nM
same,IC50,[5],14300 nM
"CC=C(C)C(=O)OCC1c2c(c(O)c(C)c3c2OCO3)CC2C3C4=C(CC(C(C#N)N12)N3C)C(=O)C(C)=C(OC)C4=O (stereo not shown) [Compound 2, renieramycin T]",IC50,[1]; Homo sapiens,163 ± 24.2 nM
same,IC50,"[2]; Homo sapiens, NCI-H292",72.8 ± 2.88 nM
same,IC50,"[3]; Homo sapiens, NCI-H460",84 ± 3.63 nM
same,IC50,[4],51 ± 0.08 nM
same,IC50,[5]; Homo sapiens,89.2 ± 4.29 nM
"CC=C(C)C(=O)OCC1c2c(c(OC(C)=O)c(C)c3c2OCO3)CC2C3C4=C(CC(C(C#N)N12)N3C)C(=O)C(C)=C(OC)C4=O (stereo not shown) [Compound 3a, 5-O-acetyl renieramycin T]",IC50,[1]; Homo sapiens,> 250 nM
same,IC50,"[2]; Homo sapiens, NCI-H292",43.4 ± 3 nM
same,IC50,"[3]; Homo sapiens, NCI-H460",35.7 ± 2.11 nM
same,IC50,[4],11.7 ± 0.59 nM
same,IC50,[5]; Homo sapiens,9.49 ± 2.12 nM
C/C=C(/C)C(=O)OC[C@H]1c2c(c(OC(=O)CNC(=O)OC(C)(C)C)c(C)c3c2OCO3)C[C@H]2[C@H]3C4=C(C[C@@H]([C@H](C#N)N12)N3C)C(=O)C(C)=C(OC)C4=O [Compound 3c],IC50,[1]; Homo sapiens,> 250 nM
same,IC50,"[2]; Homo sapiens, NCI-H292",39 ± 5.63 nM
same,IC50,"[3]; Homo sapiens, NCI-H460",41.6 ± 4.15 nM
same,IC50,[4],5.35 ± 0.27 nM
same,IC50,[5]; Homo sapiens,23.1 ± 1.38 nM
"C/C=C(/C)C(=O)OC[C@H]1c2c(c(OC(=O)[C@H](C)NC(=O)OC(C)(C)C)c(C)c3c2OCO3)C[C@H]2[C@H]3C4=C(C[C@@H]([C@H](C#N)N12)N3C)C(=O)C(C)=C(OC)C4=O [Compound 3d, 5-O-(N-Boc-L-alanine)-renieramycin T]",IC50,[1]; Homo sapiens,232 ± 26.1 nM
same,IC50,"[2]; Homo sapiens, NCI-H292",39.5 ± 1.18 nM
same,IC50,"[3]; Homo sapiens, NCI-H460",33 ± 1.55 nM
same,IC50,[4],25.8 ± 1.05 nM
same,IC50,[5]; Homo sapiens,58.5 ± 6.68 nM
C/C=C(/C)C(=O)OC[C@H]1c2c(c(OC(=O)[C@@H](NC(=O)OC(C)(C)C)C(C)C)c(C)c3c2OCO3)C[C@H]2[C@H]3C4=C(C[C@@H]([C@H](C#N)N12)N3C)C(=O)C(C)=C(OC)C4=O [Compound 3e],IC50,[1]; Homo sapiens,> 250 nM
same,IC50,"[2]; Homo sapiens, NCI-H292",89.6 ± 5.03 nM
same,IC50,"[3]; Homo sapiens, NCI-H460",76.1 ± 2.77 nM
same,IC50,[4],50 ± 1.49 nM
same,IC50,[5]; Homo sapiens,80.2 ± 4.1 nM
C/C=C(/C)C(=O)OC[C@H]1c2c(c(OC(=O)[C@H](Cc3ccccc3)NC(=O)OC(C)(C)C)c(C)c3c2OCO3)C[C@H]2[C@H]3C4=C(C[C@@H]([C@H](C#N)N12)N3C)C(=O)C(C)=C(OC)C4=O [Compound 3f],IC50,[1]; Homo sapiens,181 ± 12.1 nM
same,IC50,"[2]; Homo sapiens, NCI-H292",54.1 ± 4.78 nM
same,IC50,"[3]; Homo sapiens, NCI-H460",50.7 ± 3.5 nM
same,IC50,[4],39.8 ± 9.88 nM
same,IC50,[5]; Homo sapiens,61.2 ± 3.43 nM
C/C=C(/C)C(=O)OC[C@H]1c2c(c(OC(=O)c3ccccn3)c(C)c3c2OCO3)C[C@H]2[C@H]3C4=C(C[C@@H]([C@H](C#N)N12)N3C)C(=O)C(C)=C(OC)C4=O [Compound 3g],IC50,[1]; Homo sapiens,> 250 nM
same,IC50,"[2]; Homo sapiens, NCI-H292",51.5 ± 1.67 nM
same,IC50,"[3]; Homo sapiens, NCI-H460",43.6 ± 1.36 nM
same,IC50,[4],35.2 ± 4.13 nM
same,IC50,[5]; Homo sapiens,74.3 ± 6.88 nM
C/C=C(/C)C(=O)OC[C@H]1c2c(c(OC(=O)c3ccncc3)c(C)c3c2OCO3)C[C@H]2[C@H]3C4=C(C[C@@H]([C@H](C#N)N12)N3C)C(=O)C(C)=C(OC)C4=O [Compound 3h],IC50,[1]; Homo sapiens,223 ± 23.1 nM
same,IC50,"[2]; Homo sapiens, NCI-H292",35.3 ± 1.09 nM
same,IC50,"[3]; Homo sapiens, NCI-H460",35.6 ± 1.64 nM
same,IC50,[4],4.83 ± 2.18 nM
same,IC50,[5]; Homo sapiens,53.8 ± 7.07 nM
"C/C=C(/C)C(=O)OC[C@H]1c2c(c(OC(=O)c3ccc4ccccc4n3)c(C)c3c2OCO3)C[C@H]2[C@H]3C4=C(C[C@@H]([C@H](C#N)N12)N3C)C(=O)C(C)=C(OC)C4=O [Compound 3i, 5-O-(2-quinolinecarbonyl) ester]",IC50,[1]; Homo sapiens,151 ± 19 nM
same,IC50,"[2]; Homo sapiens, NCI-H292",36.5 ± 1.82 nM
same,IC50,"[3]; Homo sapiens, NCI-H460",43.3 ± 4.29 nM
same,IC50,[4],8.77 ± 1.94 nM
same,IC50,[5]; Homo sapiens,28 ± 3.76 nM
"C/C=C(/C)C(=O)OC[C@H]1c2c(c(OC(=O)c3cnc4ccccc4c3)c(C)c3c2OCO3)C[C@H]2[C@H]3C4=C(C[C@@H]([C@H](C#N)N12)N3C)C(=O)C(C)=C(OC)C4=O [Compound 3j, 5-O-(3-quinolinecarbonyl) ester]",IC50,[1]; Homo sapiens,> 250 nM
same,IC50,"[2]; Homo sapiens, NCI-H292",77.8 ± 5.79 nM
same,IC50,"[3]; Homo sapiens, NCI-H460",86.1 ± 6.34 nM
same,IC50,[4],37.6 ± 0.47 nM
same,IC50,[5]; Homo sapiens,109 ± 7.38 nM
C/C=C(/C)C(=O)OC[C@H]1c2c(c(OC(=O)/C=C/c3cccnc3)c(C)c3c2OCO3)C[C@H]2[C@H]3C4=C(C[C@@H]([C@H](C#N)N12)N3C)C(=O)C(C)=C(OC)C4=O [Compound 3k],IC50,[1]; Homo sapiens,114 ± 13.2 nM
same,IC50,"[2]; Homo sapiens, NCI-H292",36.3 ± 2.06 nM
same,IC50,"[3]; Homo sapiens, NCI-H460",38.8 ± 7.25 nM
same,IC50,[4],8.36 ± 2.31 nM
same,IC50,[5]; Homo sapiens,9.64 ± 0.93 nM
C/C=C(/C)C(=O)OC[C@H]1c2c(c(OC(=O)c3c[nH]c4ccccc34)c(C)c3c2OCO3)C[C@H]2[C@H]3C4=C(C[C@@H]([C@H](C#N)N12)N3C)C(=O)C(C)=C(OC)C4=O [Compound 3l],IC50,[1]; Homo sapiens,> 250 nM
same,IC50,"[2]; Homo sapiens, NCI-H292",69.4 ± 1.61 nM
same,IC50,"[3]; Homo sapiens, NCI-H460",57.9 ± 0.77 nM
same,IC50,[4],72.1 ± 3.01 nM
same,IC50,[5]; Homo sapiens,109 ± 6.99 nM
C/C=C(/C)C(=O)OC[C@H]1c2c(c(OC(=O)c3ccco3)c(C)c3c2OCO3)C[C@H]2[C@H]3C4=C(C[C@@H]([C@H](C#N)N12)N3C)C(=O)C(C)=C(OC)C4=O [Compound 3m],IC50,[1]; Homo sapiens,> 250 nM
same,IC50,"[2]; Homo sapiens, NCI-H292",42.5 ± 3.84 nM
same,IC50,"[3]; Homo sapiens, NCI-H460",42.9 ± 5.21 nM
same,IC50,[4],25.29 ± 0.24 nM
same,IC50,[5]; Homo sapiens,42.1 ± 3.13 nM
"C/C=C(/C)C(=O)OC[C@H]1c2c(c(OC(=O)c3cccs3)c(C)c3c2OCO3)C[C@H]2[C@H]3C4=C(C[C@@H]([C@H](C#N)N12)N3C)C(=O)C(C)=C(OC)C4=O [Compound 3n, 5-O-(2-thiophenecarbonyl) ester]",IC50,[1]; Homo sapiens,> 250 nM
same,IC50,"[2]; Homo sapiens, NCI-H292",137 ± 6.3 nM
same,IC50,"[3]; Homo sapiens, NCI-H460",123 ± 4.99 nM
same,IC50,[4],68.6 ± 6.25 nM
same,IC50,[5]; Homo sapiens,139 ± 6.16 nM
C/C=C(/C)C(=O)OC[C@H]1c2c(c(OC(=O)c3ccc[nH]3)c(C)c3c2OCO3)C[C@H]2[C@H]3C4=C(C[C@@H]([C@H](C#N)N12)N3C)C(=O)C(C)=C(OC)C4=O [Compound 3o],IC50,[1]; Homo sapiens,220 ± 29.7 nM
same,IC50,"[2]; Homo sapiens, NCI-H292",56.9 ± 2.66 nM
same,IC50,"[3]; Homo sapiens, NCI-H460",58.3 ± 3.56 nM
same,IC50,[4],50 ± 7.81 nM
same,IC50,[5]; Homo sapiens,65.2 ± 1.52 nM
"C/C=C(/C)C(=O)OC[C@H]1C2=C(C[C@H]3[C@H]4C5=C(C[C@@H]([C@H](C#N)N13)N4C)C(=O)C(C)=C(OC)C5=O)C(=O)C(C)=C(OC(=O)CC)C2=O [Compound 4a, 7-O-(propanoyl) ester derivative of renieramycin S]",IC50,[1]; Homo sapiens,> 250 nM
same,Reduction in cytotoxicity against H292,[2],3 fold
same,IC50,"[2]; Homo sapiens, NCI-H292",99.87 ± 0.91 nM
same,Reduction in cytotoxicity against H460,[3],fivefold
same,IC50,"[3]; Homo sapiens, NCI-H460",164 ± 4.16 nM
same,IC50,[4],77.4 ± 9.9 nM
same,IC50,[5]; Homo sapiens,230 ± 22.7 nM
"C/C=C(/C)C(=O)OC[C@H]1C2=C(C[C@H]3[C@H]4C5=C(C[C@@H]([C@H](C#N)N13)N4C)C(=O)C(C)=C(OC)C5=O)C(=O)C(C)=C(OC(=O)c1cccnc1)C2=O [Compound 4b, 7-O-(3-pyridinecarbonyl) ester derivative of renieramycin S]",IC50,[1]; Homo sapiens,> 250 nM
same,Reduction in cytotoxicity against H292,[2],3 fold
same,IC50,"[2]; Homo sapiens, NCI-H292",100 ± 1.59 nM
same,Reduction in cytotoxicity against H460,[3],fivefold
same,IC50,"[3]; Homo sapiens, NCI-H460",104 ± 2.2 nM
same,IC50,[4],67.5 ± 5.46 nM
same,IC50,[5]; Homo sapiens,192 ± 22.2 nM

# From article PMC10700347, “Semisynthesis of 5-O-ester derivatives of renieramycin T and their cytotoxicity against non-small-cell lung cancer cell lines” (Scientific Reports, 2023)
